Values of other authors as cited in patent publication US12296127B2, “Intravesical drug delivery devices” (Massachusetts Institute of Technology, priority 2007, dated 2025).

Key:
[1] = delivered orally or transdermally
[2] = oral delivery (ELMIRON); high first pass effect

bioavailability [2] | Molecule | patients taking the drug who experience side effects [1] | patients who stop treatment due to the severity of the side effects [1]
– | CCN(CC)CC#CCOC(=O)C(O)(c1ccccc1)C1CCCCC1 (stereo not drawn) [oxybutynin] | approximately 61% | 7 to 11%
3% | Pentosan polysulfate sodium [PPS] | – | –
